Literature values in patent publication US20220080043A1, “OIL/SURFACTANT MIXTURES FOR SELF-EMULSIFICATION” (priority 2019, published 2022).

Settings: Table 2; surfactants used

Q: Which HLB does the source give for sorbitan monooleate [Span80] here?
A: Its HLB is 4.3.
